Measured values taken from patent US8932597B2 (priority 2008, dated 2015).

Experiments:
[1] = test system: HuM2e antibody 23K12; assay type: binding, human
[2] = test system: anti-M2 human monoclonal antibody Z3G1; assay type: binding

Row | Substance | Signal (peptides that bind to 23K21 and 8I10) [1] | Signal (peptides that bind to Z3G1) [2] | Signal (peptides that show specific binding to Z3G1) [2]
1 | 334 (CSLLTEVGMSLCTEV; epitope peptide) [compound 334] | 1682 | 2857 | –
2 | 684 (SLLTEVETPIRNHWGCRCNDSSD; epitope peptide) [compound 684] | 728 | – | 2377
3 | 549 (SLLTEVETFIRNEWGCRCNDSSD; epitope peptide) [compound 549] | 916 | – | 2301
4 | 430 (SLLTEVETPIRNEWGCRCNDSRD; epitope peptide) [compound 430] | 833 | 2373 | –
5 | 363 (MSLLTECGCSLLTEV; epitope peptide) [compound 363] | 1500 | 1235 | –
6 | 620 (SLLTEVETPIRFEWGCRCNDSSD; epitope peptide) [compound 620] | 806 | – | 2364
7 | 510 (SLRTEVETPIRNEWGCRCNDSSD; epitope peptide) [compound 510] | 1047 | – | 1034
8 | 566 (SLLTEVCTPIRNEWGCRCNDSSD; epitope peptide) [compound 566] | 881 | – | 1210
9 | 387 (SLLTEVETPIRTEWGCRCNDSSD; epitope peptide) [compound 387] | 1365 | – | 2360
10 | 647 (SLLTEVETPIRNEWGHRCNDSSD; epitope peptide) [compound 647] | 763 | – | 2113
11 | 503 (SLLTEVETPIRNEWGCWCNDSSD; epitope peptide) [compound 503] | 1061 | – | 2437
12 | 496 (SCLTEVGSLLCEV; epitope peptide) [compound 496] | 1095 | – | 1896
13 | 312 (TLLTEVETPIRNEWGCRCNDSSD; epitope peptide) [compound 312] | 1855 | – | 2510
14 | 285 (MSLLTEVGMSLLTCV; epitope peptide) [compound 285] | 2389 | 2872 | –
15 | 396 (SLLTEVETPIRNEWGCRCNPSSD; epitope peptide) [compound 396] | 849 | 2445 | –
16 | 482 (CLCTCVGSLLTEV; epitope peptide) [compound 482] | 1178 | – | 1953
17 | 663 (MCLCTCVGMSLLTEV; epitope peptide) [compound 663] | 746 | 2509 | –
18 | 453 (SLLTEVETPIRNEAGCRCNDSSD; epitope peptide) [compound 453] | 1311 | – | 2383
19 | 296 (MSLLTEVGMCLLTEV; epitope peptide) [compound 296] | 2023 | 2809 | –
20 | 215 (CSLLTEVETCLTEVETPIRNEWGSRC; epitope peptide) [compound 215] | 958 | – | 2328
21 | 511 (SLLCEVGCSLLTEV; epitope peptide) [compound 511] | 1044 | – | 2562

Row | Substance | Signal (peptides that bind to 23K21 and 8I10) [1] | Signal (peptides that bind to Z3G1) [2] | Signal (peptides that show specific binding to Z3G1) [2]
22 | 635 (SLLTEVEAPIRNEWGCRCNDSSD; epitope peptide) [compound 635] | 769 | – | 2325
23 | 408 (SLLTEVETPIRNEWGCRCNDISD; epitope peptide) [compound 408] | 962 | 2527 | –
24 | 597 (SLLTEVETGIRNEWGCRCNDSSD; epitope peptide) [compound 597] | 835 | – | 2366
25 | 606 (SLLTEVETQIRNEWGCRCNDSSD; epitope peptide) [compound 606] | 819 | – | 2189
26 | 440 (SLLTEVETPIRNEW; epitope peptide) [compound 440] | 750 | 2334 | –
27 | 456 (CSLLTECGMSLLCEV; epitope peptide) [compound 456] | 1294 | 1640 | –
28 | 413 (SLLTEVETPIRNEWGCRCNDPSD; epitope peptide) [compound 413] | 797 | 2450 | –
29 | 629 (SLLTEVMTPIRNEWGCRCNDSSD; epitope peptide) [compound 629] | 783 | – | 2331
30 | 628 (SLLTEVETPIRNEWGCRCMDSSD; epitope peptide) [compound 628] | 786 | 2470 | –
31 | 613 (SLLTEVETPIRNEWGCRCNHSSD; epitope peptide) [compound 613] | 812 | 2439 | –
32 | 678 (SLLTEVETPIRSEWGCRCNDSSD; epitope peptide) [compound 678] | 730 | – | 2322
33 | 680 (SLLTEVETPIVNEWGCRCNDSSD; epitope peptide) [compound 680] | 729 | – | 2366
34 | 317 (MSLLTEVGMSLCTEV; epitope peptide) [compound 317] | 1804 | 2895 | –
35 | 687 (SLLTEVETPCRNEWGCRCNDSSD; epitope peptide) [compound 687] | 724 | – | 2050
36 | 661 (SLLTEVETPIRQEWGCRCNDSSD; epitope peptide) [compound 661] | 748 | – | 2367
37 | 691 (SLLTEVETPIRNEWGCRMNDSSD; epitope peptide) [compound 691] | 722 | – | 2356
38 | 434 (SLLTEVETPIRNEWGCRCNDSYD; epitope peptide) [compound 434] | 862 | 2479 | –
39 | 522 (SLLTMVETPIRNEWGCRCNDSSD; epitope peptide) [compound 522] | 1011 | – | 1244
40 | 542 (MSLCTEVGMSLLTCV; epitope peptide) [compound 542] | 927 | 2722 | –
41 | 284 (ASLLTEVGSLLTCV; epitope peptide) [compound 284] | 2443 | – | 2358
